Each structure is given as a SMILES string.

As usually defined, the IC50 is the concentration that inhibits the measured activity by half.

One experiment deals with TNFα (Homo sapiens, UniProt P01375). In words: TNF induced HEK-Blue assay (NF-kB-driven secreted alkaline phosphatase reporter). Type of experiment: cell-based. To be noted: TNF induced HEK-Blue assay IC50 value, TNFα 0.5 ng/mL, HEK-Blue-CD40L cells, 18 h. The gist of the method: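 HEK-Blue-CD40L cells (NF-kB-driven SEAP reporter), 20,000/well, added after 30 min pre-incubation of compound (0.004–25 μM final) with TNFα 0.5 ng/mL final at 37 °C; 18 h incubation. SEAP read with QUANTI-Blue at 620 nm; IC50 from 4-parameter logistic fit, normalized to unstimulated and stimulated DMSO controls.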
Chain of TNFα (P01375 77-233 limits assumed): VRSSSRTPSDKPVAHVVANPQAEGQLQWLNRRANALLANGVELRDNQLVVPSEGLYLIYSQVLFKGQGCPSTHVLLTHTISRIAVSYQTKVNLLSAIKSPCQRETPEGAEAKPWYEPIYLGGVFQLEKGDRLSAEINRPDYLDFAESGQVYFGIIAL
As to `CC(Nc1c(Cl)cnc2ccc(-c3cnc(C(C)(C)O)nc3)cc12)c1ccccc1F` (racemic) [Example 152, 2-(5-(3-chloro-4-((1-(2-fluorophenyl)ethyl)amino)quinolin-6-yl)pyrimidin-2-yl)propan-2-ol], the IC50 is below 1 µM.

In turn, `CC(C)C(Nc1c(Cl)cnc2ccc(-c3cnc(C(C)(C)O)nc3)cc12)c1ccccc1F` (stereo not drawn) [Example 189, 2-(5-(3-chloro-4-((1-(2-fluorophenyl)-2-methylpropyl)amino)quinolin-6-yl)pyrimidin-2-yl)propan-2-ol] registered an IC50 below 1 µM.

The compound `CC(Nc1c(Cl)cnc2cc(F)c(-c3cnc(C(C)(C)O)nc3)cc12)c1ccccc1F` (stereo not drawn) [Example 250, 2-(5-(3-chloro-7-fluoro-4-((1-(2-fluorophenyl)ethyl)amino)quinolin-6-yl)pyrimidin-2-yl)propan-2-ol] had an IC50 of 1 to 10 µM.

The experiment is the same for the next values; noted with them: TNFα 0.5 ng/mL, HEK-Blue-CD40L cells, 18 h; read-out: TNF induced HEK-Blue assay IC50 value.
Consider `Cc1nc2c(F)cc(-c3ccc(C(C)(C)O)cc3)cc2c(N[C@@H](c2ccccc2F)C(F)F)c1Cl` [Example 305, (S)-2-(4-(3-chloro-4-((2,2-difluoro-1-(2-fluorophenyl)ethyl)amino)-8-fluoro-2-methylquinolin-6-yl)phenyl)propan-2-ol], for which the IC50 was below 1 µM.

On to `CC(Nc1c(Cl)cnc2cc(F)c(-c3cnc(C(O)CO)nc3)cc12)c1ccccc1F` (single isomer, unassigned) [Example 597, 1-(5-(3-chloro-7-fluoro-4-((1-(2-fluorophenyl)ethyl)amino)quinolin-6-yl)pyrimidin-2-yl)ethane-1,2-diol], for which the concentration for half-maximal inhibition (IC50) fell in the range of 1 to 10 µM.

As to `Cc1nc2cc(F)c(-c3cnc(C(C)(C)O)nc3)nc2c(N[C@@H](c2cc(C#N)ccc2F)C(F)F)c1Cl` [Example 499, (S)-3-(1-((3-chloro-7-fluoro-6-(2-(2-hydroxypropan-2-yl)pyrimidin-5-yl)-2-methyl-1,5-naphthyridin-4-yl)amino)-2,2-difluoroethyl)-4-fluorobenzonitrile], the IC50 is below 1 µM.

For `Cc1nc2cc(F)c(-c3ccc(=O)[nH]c3)cc2c(N[C@H](C)c2cc(C#N)ccc2F)c1Cl` [Example 450, (R)-3-(1-((3-chloro-7-fluoro-2-methyl-6-(6-oxo-1,6-dihydropyridin-3-yl)quinolin-4-yl)amino)ethyl)-4-fluorobenzonitrile], the IC50 is below 1 µM.

In the case of `Cc1nc2ccc(-c3cnc(C(C)(C)O)nc3)cc2c(N[C@H](C)c2cc(C(N)=O)ccc2F)c1Cl` [Example 387, (R)-3-(1-((3-chloro-6-(2-(2-hydroxypropan-2-yl)pyrimidin-5-yl)-2-methylquinolin-4-yl)amino)ethyl)-4-fluorobenzamide], the concentration for half-maximal inhibition (IC50) was below 1 µM.

Turning to `C[C@@H](Nc1c(Cl)cnc2ccc(-c3cnc(C(C)(C)O)nc3)cc12)c1cc(-c2ccc(N)nc2)ccc1F` [Example 348, (R)-2-(5-(4-((1-(5-(6-aminopyridin-3-yl)-2-fluorophenyl)ethyl)amino)-3-chloroquinolin-6-yl)pyrimidin-2-yl)propan-2-ol], the IC50 is below 1 µM.

For `Cc1nc2ccc(-c3cnc(C(C)(C)O)nc3)cc2c(N[C@H](C)c2cc(-c3cnn(C)c3)ccc2F)c1Cl` [Example 344, (R)-2-(5-(3-chloro-4-((1-(2-fluoro-5-(1-methyl-1H-pyrazol-4-yl)phenyl)ethyl)amino)-2-methylquinolin-6-yl)pyrimidin-2-yl)propan-2-ol], the concentration for half-maximal inhibition (IC50) was below 1 µM.

As for `CC(C)(O)c1ncc(-c2ccc3ncc(Cl)c(NC(c4ccccc4F)C4CC4)c3c2)cn1` (racemic) [Example 191, 2-(5-(3-chloro-4-((cyclopropyl(2-fluorophenyl)methyl)amino)quinolin-6-yl)pyrimidin-2-yl)propan-2-ol], the half-maximal inhibitory concentration (IC50) is below 1 µM.

For `C[C@@H](Nc1c(Cl)cnc2ccccc12)c1cc(OCCCO)ccc1F` [Example 458, (R)-3-(3-(1-((3-chloroquinolin-4-yl)amino)ethyl)-4-fluorophenoxy)propan-1-ol], the IC50 was 1 to 10 µM.

With `Cc1nc2cc(F)c(-c3cnc(C(C)(C)O)nc3)nc2c(N[C@H](C)c2cccc(C(O)CO)c2)c1Cl` (stereo partly drawn) [Example 575, 1-(3-((R)-1-((3-chloro-7-fluoro-6-(2-(2-hydroxypropan-2-yl)pyrimidin-5-yl)-2-methyl-1,5-naphthyridin-4-yl)amino)ethyl)phenyl)ethane-1,2-diol], the IC50 is below 1 µM.

As to `CC(Nc1c(Cl)cnc2cc(F)c(-c3ccc(C4COCCN4)cc3)cc12)c1ccccc1F` (single isomer, unassigned) [Example 598, 3-chloro-7-fluoro-N-(1-(2-fluorophenyl)ethyl)-6-(4-(morpholin-3-yl)phenyl)quinolin-4-amine], the IC50 was in the range of 1 to 10 µM.

Turning to `C[C@@H](Nc1c(Cl)cnc2ccc(-c3cnc(C(C)(C)O)nc3)cc12)c1cc(N2CCCC2=O)ccc1F` [Example 362, (R)-1-(3-(1-((3-chloro-6-(2-(2-hydroxypropan-2-yl)pyrimidin-5-yl)quinolin-4-yl)amino)ethyl)-4-fluorophenyl)pyrrolidin-2-one], the IC50 is below 1 µM.

Take `Cc1ccc(C)c(Nc2c(Cl)c(C)nc3ccc(-c4ccc(CN5CCN(C(=O)OC(C)(C)C)CC5)cc4)cc23)c1` [Example 6, tert-butyl 4-(4-(3-chloro-4-((2,5-dimethylphenyl)amino)-2-methylquinolin-6-yl)benzyl)piperazine-1-carboxylate]: the IC50 is 1 to 10 µM.

Turning to `C[C@@H](Nc1c(Cl)cnc2ccc(-c3cnc(NC4(C(N)=O)CC4)nc3)cc12)c1ccccc1F` [Example 587, (R)-1-((5-(3-chloro-4-((1-(2-fluorophenyl)ethyl)amino)quinolin-6-yl)pyrimidin-2-yl)amino)cyclopropane-1-carboxamide], the IC50 was below 1 µM.

Regarding `Cc1nc2ccc(-c3cnc(C(C)(C)O)nc3)cc2c(NC(C)c2ccccc2F)c1F` (racemic) [Example 159, 2-(5-(3-fluoro-4-((1-(2-fluorophenyl)ethyl)amino)-2-methylquinolin-6-yl)pyrimidin-2-yl)propan-2-ol], the IC50 lay within 10 to 25 µM.

Take `C[C@@H](Nc1c(Cl)cnc2ccccc12)c1cc(-c2ccc(N)nc2)ccc1F` [Example 478, (R)—N-(1-(5-(6-aminopyridin-3-yl)-2-fluorophenyl)ethyl)-3-chloroquinolin-4-amine]: the concentration for half-maximal inhibition (IC50) is below 1 µM.

In the case of `Cc1nc2cc(F)c(-c3cnc(N4CCNC(=O)C4)nc3)cc2c(N[C@H](C)c2cc(Br)ccc2F)c1Cl` [Example 560, (R)-4-(5-(4-((1-(5-bromo-2-fluorophenyl)ethyl)amino)-3-chloro-7-fluoro-2-methylquinolin-6-yl)pyrimidin-2-yl)piperazin-2-one], the half-inhibitory concentration (IC50) fell in the range of 1 to 10 µM.

`Cc1ccccc1-c1ccc(F)c([C@@H](C)Nc2c(Cl)c(C)nc3ccc(-c4cnc(C(C)(C)O)nc4)cc23)c1` [Example 332, (R)-2-(5-(3-chloro-4-((1-(4-fluoro-2′-methyl-[1,1′-biphenyl]-3-yl)ethyl)amino)-2-methylquinolin-6-yl)pyrimidin-2-yl)propan-2-ol]: the IC50 is below 1 µM.

As for `CC(C)(O)c1ncc(-c2ccc3ncc(Cl)c(NC(c4ccccc4)C(F)F)c3c2)cn1` (racemic) [Example 57, 2-(5-(3-chloro-4-((2,2-difluoro-1-phenylethyl)amino)quinolin-6-yl)pyrimidin-2-yl)propan-2-ol], the IC50 is below 1 µM.

As for `Cc1nc2ccc(-c3cnc(C(C)(C)O)nc3)cc2c(N[C@H](C)c2cc(C(C)O)ccc2F)c1Cl` (mixture of isomers) [Example 433, 2-(5-(3-chloro-4-(((1R)-1-(2-fluoro-5-(1-hydroxyethyl)phenyl)ethyl)amino)-2-methylquinolin-6-yl)pyrimidin-2-yl)propan-2-ol], the IC50 is below 1 µM.

Regarding `C[C@@H](Nc1c(Cl)cnc2ccc(-c3cnc(C(C)(C)O)nc3)cc12)c1cccc(-n2cccn2)c1` [Example 368, (R)-2-(5-(4-((1-(3-(1H-pyrazol-1-yl)phenyl)ethyl)amino)-3-chloroquinolin-6-yl)pyrimidin-2-yl)propan-2-ol], the IC50 was in the range of 10 to 25 µM.

Take `CC(Nc1c(Cl)cnc2ccc(-c3cnc(C(C)(C)O)nc3)cc12)[C@@H]1CCCN(C(N)=O)C1` (single isomer, unassigned) [Example 104]: the IC50 was in the range of 1 to 10 µM.

As for `CC(C)(O)c1ncc(-c2ccc3ncc(Cl)c(NCc4ccc(C(F)(F)F)cc4)c3c2)cn1` [Example 145, 2-(5-(3-chloro-4-(4-(trifluoromethyl)benzylamino)quinolin-6-yl)pyrimidin-2-yl)propan-2-ol], the IC50 lay within 10 to 25 µM.

On to `CC(C)(O)c1ncc(-c2cc3c(N[C@@H](c4cc(C#N)ccc4F)C(F)F)c(Cl)cnc3cc2F)cn1` [Example 381, (S)-3-(1-((3-chloro-7-fluoro-6-(2-(2-hydroxypropan-2-yl)pyrimidin-5-yl)quinolin-4-yl)amino)-2,2-difluoroethyl)-4-fluorobenzonitrile], for which the IC50 is below 1 µM.

Turning to `Cc1nc2ccc(-c3cnc(C(C)(C)O)nc3)cc2c(N[C@H](C)c2cc(OCCO)ccc2F)c1Cl` [Example 435, (R)-2-(5-(3-chloro-4-((1-(2-fluoro-5-(2-hydroxyethoxy)phenyl)ethyl)amino)-2-methylquinolin-6-yl)pyrimidin-2-yl)propan-2-ol], the IC50 was below 1 µM.

On to `Cc1ccc(F)c([C@H](Nc2c(Cl)c(C)nc3ccc(-c4cnc(C(C)(C)O)nc4)cc23)C(F)F)c1` [Example 351, (S)-2-(5-(3-chloro-4-((2,2-difluoro-1-(2-fluoro-5-methylphenyl)ethyl)amino)-2-methylquinolin-6-yl)pyrimidin-2-yl)propan-2-ol], for which the IC50 is below 1 µM.

On to `CC(Nc1c(Cl)cnc2ccc(-c3cnc(C(C)(C)O)nc3)cc12)[C@@H]1CCCNC1` (mixture of isomers) [Example 98, (R)-2-(5-(3-chloro-4-((1-(piperidin-3-yl)ethyl)amino)quinolin-6-yl)pyrimidin-2-yl)propan-2-ol], for which the IC50 lay within 10 to 25 µM.

The values are drawn from patent US10865191B2, “Heterocyclic compounds useful as modulators of TNF alpha” (BRISTOL-MYERS SQUIBB COMPANY, priority 2015, dated 2020).
